In patent US9617170B2, “Water treatment” (Kemira Oyj, priority 2012, dated 2017):
Several values for one entry are separate records, joined by “and”; a condition that tells them apart may be missing. Identical values can stand only once.

Columns and labels:
[1] = test system: Enterococci; test: Disinfection of spiked wastewater effluent with PFA, UV and PFA+UV: Enterococci count; set-up: species or system Enterococcus faecalis; conditions: for PFA in combination with UV (Qa): UV 15 mWs/cm^2; for PFA in combination with UV (Qa) / PFA alone (QA): interpolated
Procedure: (§1) Since the wastewater effluent might contain less than 100 cfu/ml (10^4 cfu/100 ml) of E. coli and Enterococci these microorganisms were spiked to wastewater so that the numbers of these microorganisms would be at the level of 10^4-10^5 cfu/ml allowing to study better reduction. E. coli ATTC 15597 and Enterococcus faecalis ATCC 29212 were produced in tryptone yeast extract broth as overnight shaker cultures at 37° C. and kept at 4° C. during the experiment. The numbers of E. coli and Enterococci (containing thus both the natural and spiked ones) were enumerated from effluent and effluent after disinfections by using Chromocult agar (Merck) and confirmed by indole production for E. coli and Slanetz-Bartley agar (Labema) for Enterococci incubated at 37° C. for 1 and 2 days, respectively.
(§2) The enumerations of E. coli and Enterococci were done as for fresh wastewater keeping the mixture at 4° C. for less than 5 hours before starting the analysis.
(§3) Only UV-irradiation: The spiked wastewater effluent was mixed and treated in a collimator device (UV intensity of 0.22 mW/cm^2 on surface of the solution) to treat UV-irradiations using UV 15 mWs/cm^2 alone, UV 25 mWs/cm^2 alone and UV 50 mWs/cm^2 alone. The enumerations of E. coli and Enterococci were determined as previously.
(§4) E. coli and Enterococci were analyzed by the spread-plate-technique. E. coli were cultivated on Chromocult agar (Merck, KGaA, Germany) and incubated at 37° C. for 21+3 h (preferring 2 days) and Enterococci on Slanez & Bartley agar (Lab M, IDG plc, Bury, Lancashire, UK) and incubated at 37° C. for 48+3 h. E. coli were confirmed by oxidase. Bacterial numbers were calculated as CFU/ml (CFU=Colony Forming Unit) and reductions were also determined. These bacterial determination methods are describes in ISO-9308-1 (E. coli) and SFS-EN ISO 7899-2 (Enterococci).
(§5) The graphs of Log reduction vs. dose were made and the values below were interpolated from the linear function of the data points.

[2] = test system: MS2; test: Disinfection of MS2-spiked wastewater effluent with PFA, UV and PFA+UV (plaque count); set-up: species or system RNA coliphages (MS2)
Procedure: Freshly prepared DEX-135® was added to wastewater effluent (500 ml) that was spiked with RNA coliphages (MS2) to contain 38534 PFU/ml MS2 and mixed continuously with a magnetic stirrer.
UV disinfection using collimator device: The test was done with 50 ml of wastewater effluent The waters were taken in to the cylinders and that was spiked with RNA coliphages (MS2) to contain 38534 PFU/ml MS2 and mixed. 10 ml of this water was taken in to the Petri dishes (diameter 6 cm) and exposed to UV using collimated beam (intensity I0 on the surface of water […]) with continue mixing with magnet stirrer. […]
Determination of microorganisms: The microbiological analyses were started within a few minutes after disinfection segment of the experiment. MS2 coliphages were determined on phage TYG-agar by basing on old double-agar-layer-method (Adams, 1959), with Escherichia coli ATCC 15597 and 13706, respectively as host bacteria and overnight incubation at 37° C. After incubation, virus plaques were counted and results calculated as PFU/ml (PFU=Plaque Forming Unit) and reduction percentage were also determined. […]
The synergistic index was calculated by the method presented by F. C. […] Here, the synergistic index was calculated using the following formula: Synergistic index SI=Qa/QA+Qb/QB.
Synergistic index was calculated for 1 log reduction.

[3] = Decomposition of 8 spiked micropollutants in secondary waste water by PFA and UV (batch reactor); conditions: total reaction time 15 min
Procedure: The total reaction time was always kept in 15 min and the treatment temperature was between 10-15° C. The concentrations of each micropollutant were analyzed before and after treatment, and the difference was used to calculate the conversion of each compound. Further, a mean value of the conversions (%) of those 8 compounds was calculated to describe the overall efficiency of the treatment.

[4] = test system: E. coli; test: Disinfection of spiked wastewater effluent with PFA, UV and PFA+UV: E. coli count; set-up: species or system Escherichia coli; conditions: for PFA in combination with UV (Qa): UV 15 mWs/cm^2; for PFA in combination with UV (Qa) / PFA alone (QA): interpolated
Procedure: as §1, §2, §3, §4, §5

[5] = test system: MS2; conditions: PAA 7-15 mg/l; cited from earlier work
[6] = PFA 0.25 mg/l alone, 10 minutes contact

Compound: O=COO [PFA, performic acid]
- PFA in combination with UV (Qa) ([1]; Log reduction 2.5): 0.03 mg/L
- PFA alone (QA) ([1]; Log reduction 2.5): 0.47 mg/L
- PFA in combination with UV (Qa) ([1]; Log reduction 3): 0.19 mg/L
- PFA alone (QA) ([1]; Log reduction 3): 0.56 mg/L
- PFA in combination with UV (Qa) ([1]; Log reduction 3.5): 0.35 mg/L
- PFA alone (QA) ([1]; Log reduction 3.5): 0.66 mg/L
- PFA in combination with UV (Qa) ([1]; Log reduction 4): 0.52 mg/L
- PFA alone (QA) ([1]; Log reduction 4): 0.75 mg/L
- Log reduction ([1]; PFA 0.25 mg/l + UV 15 mWs/cm^2): 4.53
- Log reduction [1, 6]: 3.08
- PFA dose for 1 log reduction of MS2 ([2]; PFA alone, effluent wastewater, 90% (1 log) removal): 3.5 mg/l
- synergy index (SI) ([2]; UV + PFA, 1 log reduction of MS2): 1
- average conversion (%) of 8 compounds ([3]; PFA 5 mg/l, UV 0 min): 1.66%
- average conversion (%) of 8 compounds ([3]; PFA 5 mg/l, UV 1 min): 15.27%
- average conversion (%) of 8 compounds ([3]; PFA 5 mg/l, UV 5 min): 28.53%
- average conversion (%) of 8 compounds ([3]; PFA 5 mg/l, UV 15 min): 47.86%
- average conversion (%) of 8 compounds ([3]; PFA 12.5 mg/l, UV 0 min): 5.15%
- average conversion (%) of 8 compounds ([3]; PFA 12.5 mg/l, UV 1 min): 19.25%
- average conversion (%) of 8 compounds ([3]; PFA 12.5 mg/l, UV 5 min): 36.25%
- average conversion (%) of 8 compounds ([3]; PFA 12.5 mg/l, UV 15 min): 54.18%
- average conversion (%) of 8 compounds ([3]; PFA 25 mg/l, UV 0 min): 8.98%
- average conversion (%) of 8 compounds ([3]; PFA 25 mg/l, UV 1 min): 16.64%
- average conversion (%) of 8 compounds ([3]; PFA 25 mg/l, UV 5 min): 41.61%
- average conversion (%) of 8 compounds ([3]; PFA 25 mg/l, UV 15 min (88 mJ/cm^2)): 66.78%
- SI ([4]; Log reduction 1.5, PFA 0.06 mg/l + UV 15 mWs/cm^2): 0.88
- PFA in combination with UV (Qa) ([4]; Log reduction 1.5): 0.06 mg/L
- PFA alone (QA) ([4]; Log reduction 1.5): 0.33 mg/L
- SI ([4]; Log reduction 2, PFA 0.22 mg/l + UV 15 mWs/cm^2): 1 and 1.02
- PFA in combination with UV (Qa) ([4]; Log reduction 2): 0.22 mg/L
- PFA alone (QA) ([4]; Log reduction 2): 0.44 mg/L
- Log reduction ([4]; PFA 0.25 mg/l + UV 25 mWs/cm^2): 3.52
- Log reduction [4, 6]: 1.72

Compound: CC(=O)OO [PAA, peracetic acid]
- log reduction of MS2 [5]: 1-1.5
